The results in this text go back to paper PMC5522267, “Targeting PEPT1: a novel strategy to improve the antitumor efficacy of doxorubicin in human hepatocellular carcinoma therapy” (Oncotarget, 2017).

The test system of one series is Bel-7402. The series can be described thus: Drug concentration in tumor cells by HPLC, Bel-7402. Format: cell-based, human. Conditions: incubated 2 hours. The method, then:
(§1) When the density of HCC cells reached to 3 × 10^6/ml, they were trypsinized and centrifuge (4°C, 800rpm, 5min), then discarded the supernatant, dropping medium 3 ml and evenly mixed. Cell suspension was divided into three groups (control group, Doxorubicin-tripeptide conjugate group and Doxorubicin group). The drug concentration was 0.01 mg/ml for cultured 2 hours avoiding light. Then the cells obtained by centrifugation were proceeded by the following steps: washed 3 times with 1 ml normal saline, added 0.5 ml ultra pure water (Millipore), broken by ultrasonic wave, drooped in acetonitrile (Tianjin Concord Technology Co. Ltd, China) 0.5 ml, mixed, ultrasonic oscillation for 10 mins, centrifuge (1200 rpm, 15 min), take the supernatant, filtration with filter membrane, take 20 μl for HPLC analysis (Agilent 1100 HPLC system, USA).
(§2) Chromatographic conditions were as follows: chromatographic column: DIONEX Acclaim 120 C18 (2.1 × 250 mm, 5 μm 120A), Mobile phase: Acetonitrile-0.2%NaH2PO4 aqueous solution (35: 65), Velocity: 0.35 ml/min, column temperature: 30°C, DAD, 254 nm, sample size: 20 μl. […] According to the chromatographic condition, the retention time (tR), peak position time, chromatographic behavior, resolution (R), the minimum detectable concentration and the intracellular drug concentration of these two drugs were detected in turn.

In the next series the test system is HepG2. Description: Drug concentration in tumor cells by HPLC, HepG2. Format: cell-based, human. The note with it: incubated 2 hours. On the procedure:
as §1, §2

A further series addresses T1, PEPT1 (Homo sapiens, UniProt P46059).
T1 construct: endogenous in cells; host or cells: Bel-7402, HepG2 (human HCC cells); Caco-2
T1 sequence (P46059 1-708): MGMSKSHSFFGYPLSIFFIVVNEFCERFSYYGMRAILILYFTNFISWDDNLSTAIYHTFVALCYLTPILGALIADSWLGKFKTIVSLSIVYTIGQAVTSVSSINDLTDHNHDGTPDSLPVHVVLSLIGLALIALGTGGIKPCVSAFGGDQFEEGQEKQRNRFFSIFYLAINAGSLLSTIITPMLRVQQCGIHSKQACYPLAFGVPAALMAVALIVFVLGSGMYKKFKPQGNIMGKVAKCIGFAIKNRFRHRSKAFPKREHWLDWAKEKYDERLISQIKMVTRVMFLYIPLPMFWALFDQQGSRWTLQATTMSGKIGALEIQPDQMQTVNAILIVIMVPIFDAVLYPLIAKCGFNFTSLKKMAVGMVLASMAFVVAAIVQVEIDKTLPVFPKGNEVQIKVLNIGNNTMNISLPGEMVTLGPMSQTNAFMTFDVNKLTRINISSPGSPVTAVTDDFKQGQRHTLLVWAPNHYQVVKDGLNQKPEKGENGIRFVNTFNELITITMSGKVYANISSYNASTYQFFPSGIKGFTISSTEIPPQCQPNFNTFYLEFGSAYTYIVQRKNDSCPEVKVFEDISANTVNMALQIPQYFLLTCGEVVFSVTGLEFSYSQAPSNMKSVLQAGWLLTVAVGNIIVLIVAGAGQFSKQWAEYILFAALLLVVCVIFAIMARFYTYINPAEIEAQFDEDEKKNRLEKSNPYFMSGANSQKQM
The series can be described thus: Uptake, dynamic and competitive inhibition test. The format is cell-based. Conditions: inhibitors 0.01 mg/ml preincubated 30 mins, then drug 1 h. On the procedure: The transport of Doxorubicin-tripeptide conjugate by PEPT1 was evaluated by time course, dynamic and competitive inhibition tests. The uptake study was performed on the confluent cell monolayer as described previously.
The uptake buffer was HBSS buffer (0.952 mM CaCl2, 5.36 mM KCl, 0.441 mM KH2PO4, 0.812 mM MgSO4, 136.7 mM NaCl, 0.385 mM Na2HPO4, 25 mM D-glucose, and 10 mM HEPES) adjusted to pH 6.0. […] Then four different initial concentrations (0.025 mg/ml, 0.05 mg/ml, 0.10 mg/ml, 0.15 mg/ml) of Doxorubicin-tripeptide conjugate were incubated with HCC cell monolayer at pH 6.0 for 120 min. At last, 0.05 mg/ml Doxorubicin-tripeptide conjugate was fed to HCC cells at different pH uptake buffer (5.4, 6, 7.4 and 8.4) for 120 min. Inhibition tests were conducted by preincubating the cells with competitive compounds Gly-Sar, Gly-Gln, Gly-Gly-Gly (0.01 mg/ml) respectively for 30 mins and then incubated with Doxorubicin-tripeptide conjugate (0.05 mg/ml) for 1 h. After removing the buffer and rapidly washing 3 times with ice-cold PBS, the cellular uptake was specifically examined with a Multi-Mode Reader (BioTek, Synergy 2, USA) with Excitation 485/20 and Emission 590/35.

Series [1] in a line: Blood routine, HepG2 HCC mice. The format is in vivo, nude mice. Conditions: low dose, after treatment.
Series [2] in a line: Blood routine, Bel-7402 HCC mice. Conditions: high dose, after treatment. The format is in vivo, nude mice.
The conditions of series [3]: HCC mice, both dose groups.
Description: After the HCC mice model was established, the nude mice were randomly assigned to three groups: Group A (control group: administration with normal saline 0.2 ml every time), group B (administration with Doxorubicin-tripeptide conjugate) and group C (administration with Doxorubicin). […] Treatment was conducted every 3 weeks for 5 weeks. Pay close attention to the general condition of the mice and their subcutaneous tumor and draw survivorship curve. The mice were weighed every 3 days and tumor volume was measured with a digital caliper using the formula: volume = (1/6).π. length × width × height. At the end of the experiment, tumor weight and volume was measured to obtained the tumor inhibitory rate and actual volume, which were calculated by the follow formula respectively: tumor inhibitory rate = (The average tumor weight of control group-experimental group)/control group × 100 %. volume = (1/6).π. length × width × height.
After the course of administration, mice were sacrificed, then the blood was collected to detect relevant indexes including quantitative serum protein, blood routine, myocardial enzymes (CK, CK-MB, LDH, AST), GSH-PX, MDA and SOD, the bone marrow taken to make bone marrow smear. What's more, the tumor, liver, jejunum and heart tissue of mice were dissected firstly for Small Animal Imaging (KODAK IS in-vivo FX, Kodak), and secondly were placed in the 10% Formaldehyde solution to prepare paraffin section, HE staining for histological examination. […] The tests of CK, CK-MB, LDH, AST, GSH-PX, MDA and SOD were completed in accordance with instructions strictly (Jiancheng Bioengineering Institute, Nanjing, China).

Counter-ions that a name gives are not always drawn. Marks after values point to notes of the source that are not given here.

`COc1cccc2c1C(=O)c1c(O)c3c(c(O)c1C2=O)C[C@@](O)(C(=O)CO)C[C@@H]3O[C@H]1C[C@H](N)[C@H](O)[C@H](C)O1` [Doxorubicin, Doxorubicin hydrochloride]: in the series on Bel-7402, the “drug concentration in tumor cells” value came out at 2420 ± 30 ng/mL. Moreover, in the series with HepG2, the “drug concentration in tumor cells” value was 2320 ± 30 ng/mL. Moreover, the “uptake in presence of inhibitors Gly-Sar, Gly-Gln or Gly-Gly-Gly” value on PEPT1 was “not”. Besides, in series [1], the PLT is 72.53 ± 25.46 ^a ×10^9/l, the RBC is reported as 7.55 ± 1.33 ×10^12/l and the WBC was 4.90 ± 3.60 ×10^9/l. In series [2], the PLT is given as 81.33 ± 27.50^a ×10^9/l, the RBC is recorded as 6.90 ± 2.32 ×10^12/l and the WBC is reported as 3.66 ± 2.58^a ×10^9/l. Besides, in series [3], the “change of mice weight during treatment” value was “the most significant”.
